SMILES strings stand for the structures. Some results are limits rather than exact numbers.

Chain of Macrophage metalloelastase (P39900 whole entry): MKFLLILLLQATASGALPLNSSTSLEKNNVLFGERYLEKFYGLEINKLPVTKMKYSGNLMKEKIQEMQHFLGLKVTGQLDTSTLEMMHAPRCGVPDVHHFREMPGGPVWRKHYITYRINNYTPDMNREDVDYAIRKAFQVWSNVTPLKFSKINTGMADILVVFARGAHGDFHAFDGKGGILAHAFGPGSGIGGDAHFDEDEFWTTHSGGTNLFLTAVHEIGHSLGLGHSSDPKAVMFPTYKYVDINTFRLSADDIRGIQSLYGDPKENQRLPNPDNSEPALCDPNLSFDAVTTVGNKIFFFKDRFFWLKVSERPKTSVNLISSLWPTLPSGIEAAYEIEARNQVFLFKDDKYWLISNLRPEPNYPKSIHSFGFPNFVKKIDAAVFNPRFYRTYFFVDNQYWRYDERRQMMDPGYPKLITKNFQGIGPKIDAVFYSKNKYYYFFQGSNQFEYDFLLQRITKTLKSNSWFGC

One test has as its target Macrophage metalloelastase (Homo sapiens, UniProt P39900). As to the kind of experiment: Inhibition of MMP12.
As usually defined, the IC50 is the concentration that gives 50% inhibition. High values mean weaker potency in that assay, low ones greater potency in that assay. As for `COc1ccc(C2=NNC3(S2)C(=O)N(c2ccccc2C)c2ccc(C)cc23)cc1` (stereo unspecified), the IC50 was over 22 µM.

With `COc1ccc(C2=NNC3(S2)C(=O)N(Cc2ccccc2)c2ccccc23)cc1` (stereo unspecified), the half-maximal inhibitory concentration (IC50) stood at 5.6 µM.

Regarding `COc1ccc(C2=NNC3(S2)C(=O)N(Cc2ccccc2)c2ccc(C)cc23)cc1` (stereo unspecified), the half-maximal inhibitory concentration (IC50) was over 22 µM. With `CCCc1ccc2c(c1)NC(=O)C21NN=C(c2ccc(OC)cc2)S1` (stereo unspecified), half-maximal inhibition (IC50) required 1.7 µM.

For a further test, the target named is Collagenase 3 (Homo sapiens, UniProt P45452). As to the kind of experiment: Inhibition of MMP13.
`COc1ccc(C2=NNC3(S2)C(=O)N(c2ccccc2C)c2ccc(C)cc23)cc1` (stereo unspecified): the IC50 was over 100 µM. The same measure, in the same setting: the figure for `COc1ccc(C2=NNC3(S2)C(=O)N(Cc2ccccc2)c2ccccc23)cc1` (stereo unspecified) is over 100 µM; for `COc1ccc(C2=NNC3(S2)C(=O)N(Cc2ccccc2)c2ccc(C)cc23)cc1` (stereo unspecified) it is over 100 µM. The same measure, in the same setting: the figure for `CCCc1ccc2c(c1)NC(=O)C21NN=C(c2ccc(OC)cc2)S1` (stereo unspecified) is over 22 µM.

For a further test, the target named is T1, A disintegrin and metalloproteinase with thrombospondin motifs 5 (Homo sapiens, UniProt Q9UNA0).
T1 sequence (Q9UNA0 whole entry): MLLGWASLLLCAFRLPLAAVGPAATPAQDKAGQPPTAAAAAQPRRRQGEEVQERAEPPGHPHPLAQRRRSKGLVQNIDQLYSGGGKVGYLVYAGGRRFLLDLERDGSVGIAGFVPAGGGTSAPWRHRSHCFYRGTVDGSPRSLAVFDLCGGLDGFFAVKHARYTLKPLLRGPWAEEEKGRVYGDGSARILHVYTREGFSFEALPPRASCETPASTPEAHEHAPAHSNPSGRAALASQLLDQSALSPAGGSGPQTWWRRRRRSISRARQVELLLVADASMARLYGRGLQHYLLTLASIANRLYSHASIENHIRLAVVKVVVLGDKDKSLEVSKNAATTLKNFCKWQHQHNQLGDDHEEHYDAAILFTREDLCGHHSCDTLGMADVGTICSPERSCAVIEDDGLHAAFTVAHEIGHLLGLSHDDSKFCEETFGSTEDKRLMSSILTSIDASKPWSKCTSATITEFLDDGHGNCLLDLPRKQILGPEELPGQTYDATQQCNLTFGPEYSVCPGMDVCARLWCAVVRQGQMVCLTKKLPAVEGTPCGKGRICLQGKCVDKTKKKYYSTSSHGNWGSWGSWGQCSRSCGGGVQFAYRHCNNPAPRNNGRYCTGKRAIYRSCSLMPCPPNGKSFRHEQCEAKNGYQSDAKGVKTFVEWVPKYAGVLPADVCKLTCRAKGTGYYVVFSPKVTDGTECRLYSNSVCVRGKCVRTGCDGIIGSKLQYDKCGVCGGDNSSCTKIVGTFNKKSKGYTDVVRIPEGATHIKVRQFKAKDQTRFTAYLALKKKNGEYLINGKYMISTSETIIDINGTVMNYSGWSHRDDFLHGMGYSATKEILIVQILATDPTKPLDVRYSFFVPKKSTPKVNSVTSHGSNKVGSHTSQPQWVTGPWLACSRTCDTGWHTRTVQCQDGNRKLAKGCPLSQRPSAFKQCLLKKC
Briefly: Inhibition of ADAMTS5 by FRET assay.
Compound `CCc1ccc2c(c1)C1(NN=C(c3ccccc3)S1)C(=O)N2` (stereo unspecified) showed a 50% inhibitory concentration (IC50) of 9.6 µM. The compound `Cc1ccc(C2=NNC3(S2)C(=O)N(C)c2ccccc23)cc1` (stereo unspecified) displayed a 50% inhibitory concentration (IC50) of 4.6 µM.

With `Cc1ccc(C2=NNC3(S2)C(=O)Nc2ccc(C)cc23)cc1` (stereo unspecified), half-maximal inhibition (IC50) required 3 µM.

`CCc1ccc2c(c1)C1(NN=C(c3ccc(C)cc3)S1)C(=O)N2` (stereo unspecified) yielded a half-inhibitory concentration (IC50) of 1.9 µM. Compound `COc1ccc(C2=NNC3(S2)C(=O)N(C)c2ccccc23)cc1` (stereo unspecified) displayed an IC50 of 7.5 µM. The compound `Cc1ccc(C2=NNC3(S2)C(=O)N(c2ccccc2C)c2ccc(C)cc23)cc1` (stereo unspecified) gave an IC50 of 1.2 µM. `COc1ccc(C2=NNC3(S2)C(=O)Nc2ccc(C)cc23)cc1` (stereo unspecified): the 50% inhibitory concentration (IC50) worked out at 2.5 µM. Regarding `COc1ccc(C2=NNC3(S2)C(=O)Nc2ccc(Cl)cc23)cc1` (stereo unspecified), half-maximal inhibition (IC50) was put at 2 µM. Turning to `CC(C)N1C(=O)C2(NN=C(c3ccccc3)S2)c2ccccc21` (stereo unspecified), inhibition was half-maximal at 3.1 µM (IC50).

For `COc1ccc(C2=NNC3(S2)C(=O)Nc2cc(Cl)ccc23)cc1` (stereo unspecified), inhibition was half-maximal at 1.2 µM (IC50). Consider `Cc1ccc(C2=NNC3(S2)C(=O)Nc2ccccc23)cc1` (stereo unspecified), for which the half-maximal inhibitory concentration (IC50) was 3.7 µM. In turn, `COc1ccc(C2=NNC3(S2)C(=O)N(Cc2ccccc2)c2ccccc23)cc1` (stereo unspecified) returned a half-maximal inhibitory concentration (IC50) of 0.87 µM. `CCc1ccc2c(c1)C1(NN=C(c3ccc(OC)cc3)S1)C(=O)N2` (stereo unspecified) came in with an IC50 of 1.4 µM. In turn, `O=C1Nc2ccccc2C12NN=C(c1ccccc1)S2` (stereo unspecified) returned an IC50 of 24.2 µM. Consider `CCCc1cc2c(cc1C)C1(NN=C(c3ccc(OC)cc3)S1)C(=O)N2Cc1ccccc1` (stereo unspecified), for which the midpoint of inhibition, the IC50, lay at 0.95 µM.

For another test, the target named is T2, A disintegrin and metalloproteinase with thrombospondin motifs 4 (Homo sapiens, UniProt O75173).
T2 sequence (O75173 whole entry): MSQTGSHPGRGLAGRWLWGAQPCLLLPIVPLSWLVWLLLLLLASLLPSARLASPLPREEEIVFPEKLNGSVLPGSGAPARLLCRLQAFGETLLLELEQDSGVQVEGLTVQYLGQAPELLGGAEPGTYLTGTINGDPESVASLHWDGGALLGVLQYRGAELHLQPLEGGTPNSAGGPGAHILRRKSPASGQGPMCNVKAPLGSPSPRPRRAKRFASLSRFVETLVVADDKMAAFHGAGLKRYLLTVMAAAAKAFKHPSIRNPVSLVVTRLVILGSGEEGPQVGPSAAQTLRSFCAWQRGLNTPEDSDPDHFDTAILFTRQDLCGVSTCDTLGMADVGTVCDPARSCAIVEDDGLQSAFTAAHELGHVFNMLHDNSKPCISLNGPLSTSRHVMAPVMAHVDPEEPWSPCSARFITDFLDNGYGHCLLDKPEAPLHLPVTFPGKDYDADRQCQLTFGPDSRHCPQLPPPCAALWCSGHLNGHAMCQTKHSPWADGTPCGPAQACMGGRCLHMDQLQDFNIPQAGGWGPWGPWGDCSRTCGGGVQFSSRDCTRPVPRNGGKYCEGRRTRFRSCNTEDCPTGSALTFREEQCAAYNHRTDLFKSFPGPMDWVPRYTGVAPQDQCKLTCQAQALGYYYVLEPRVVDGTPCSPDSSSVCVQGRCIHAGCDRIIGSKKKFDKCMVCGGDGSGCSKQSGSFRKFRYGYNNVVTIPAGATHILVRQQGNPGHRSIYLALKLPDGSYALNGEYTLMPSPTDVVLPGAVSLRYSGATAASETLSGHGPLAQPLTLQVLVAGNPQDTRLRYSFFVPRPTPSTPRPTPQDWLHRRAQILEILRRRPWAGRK
Briefly: Inhibition of ADAMTS4.
As for `COc1ccc(C2=NNC3(S2)C(=O)N(c2ccccc2C)c2ccc(C)cc23)cc1` (stereo unspecified), the half-inhibitory concentration (IC50) was 10.5 µM. In turn, `COc1ccc(C2=NNC3(S2)C(=O)N(Cc2ccccc2)c2ccccc23)cc1` (stereo unspecified) showed a half-maximal inhibitory concentration (IC50) of over 22 µM. Same read-out and setting: the figure for `CCCc1ccc2c(c1)NC(=O)C21NN=C(c2ccc(OC)cc2)S1` (stereo unspecified) is over 22 µM.

Values taken from ChEMBL document CHEMBL1137466, “5'-Phenyl-3'H-spiro[indoline-3,2'-[1,3,4]thiadiazol]-2-one inhibitors of ADAMTS-5 (aggrecanase-2)” (Bioorg Med Chem Lett, 2007).
